In patent US20100093722A1, “HETEROARYL AND PHENYL SUBSTITUTED THIENO[2,3-d]PYRIMIDINES AND THEIR USE AS ADENOSINE A2a RECEPTOR ANTAGONISTS” (priority 2008, published 2010):
pKi: −log10 of the molar value.

Columns and labels:
[1] = target: T1, human adenosine A2a receptor (Homo sapiens, UniProt P29274); test: Adenosine A2a Receptor Functional Assay (A2AGAL2); assay type: cell-based; settings: CHO-K1 cells overexpressing human A2a, cAMP inducible beta-galactosidase reporter, 15 nM NECA agonist challenge
T1 construct: expressed in transfected cells; host or cells: CHO-K1
T1 sequence (P29274 whole entry): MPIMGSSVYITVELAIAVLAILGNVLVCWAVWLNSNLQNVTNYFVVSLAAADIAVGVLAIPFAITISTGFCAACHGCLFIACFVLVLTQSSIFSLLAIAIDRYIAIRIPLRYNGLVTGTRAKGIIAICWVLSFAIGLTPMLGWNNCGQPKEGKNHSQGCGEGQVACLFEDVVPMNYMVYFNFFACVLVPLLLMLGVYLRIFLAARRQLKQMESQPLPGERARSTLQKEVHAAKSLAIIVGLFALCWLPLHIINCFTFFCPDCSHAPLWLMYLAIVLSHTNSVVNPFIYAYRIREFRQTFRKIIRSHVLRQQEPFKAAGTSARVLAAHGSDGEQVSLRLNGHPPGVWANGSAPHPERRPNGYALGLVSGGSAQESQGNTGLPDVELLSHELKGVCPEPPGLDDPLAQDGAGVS
Procedure: Adenosine A2a Receptor Functional Assay (A2AGAL2)
To initiate the functional assay, cryopreserved CHO-K1 cells overexpressing the human adenosine A2a receptor and containing a cAMP inducible beta-galactosidase reporter gene were thawed, centrifuged, DMSO containing media removed, and then seeded with fresh culture media into clear 384-well tissue culture treated plates (BD #353961) at a concentration of 10K cells/well. Prior to assay, these plates were cultured for two days at 37° C., 5% CO2, 90% Rh. On the day of the functional assay, culture media was removed and replaced with 45 uL assay medium (Hams/F-12 Modified (Mediatech #10-080CV) supplemented w/0.1% BSA). Test compounds were diluted and 11 point curves created at a 1000× concentration in 100% DMSO. Immediately after addition of assay media to the cell plates, 50 nL of the appropriate test compound antagonist or agonist control curves were added to cell plates using a Cartesian Hummingbird. Compound curves were allowed to incubate at room temperature on cell plates for approximately 15 minutes before addition of a 15 nM NECA (Sigma E2387) agonist challenge (5 uL volume). A control curve of NECA, a DMSO/Media control, and a single dose of Forskolin (Sigma F3917) were also included on each plate. After additions, cell plates were allowed to incubate at 37° C., 5% CO2, 90% Rh for 5.5-6 hours. After incubation, media was removed, and cell plates were washed 1× 50 uL with DPBS w/o Ca & Mg (Mediatech 21-031-CV). Into dry wells, 20 uL of 1× Reporter Lysis Buffer (Promega E3971 (diluted in dH2O from 5× stock)) was added to each well and plates frozen at −20° C. overnight. For β-galactosidase enzyme calorimetric assay, plates were thawed out at room temperature and 20 μL 2× assay buffer (Promega) was added to each well. Color was allowed to develop at 37° C., 5% CO2, 90% Rh for 1-1.5 h or until reasonable signal appeared. The calorimetric reaction was stopped with the addition of 60 μL/well 1M sodium carbonate. Plates were counted at 405 nm on a SpectraMax Microplate Reader (Molecular Devices). Data was analyzed in Microsoft Excel and IC/EC50 curves were fit using a standardized macro.

[2] = target: T2, human A2a adenosine receptor (Homo sapiens, UniProt P29274); test: Ligand Binding Assay for Adenosine A2a Receptor (A2A-B); settings: plasma membrane of HEK293 cells containing human A2a receptor, radioligand [3H]CGS21680
T2 construct: purchased PerkinElmer RB-HA2a; host or cells: HEK293 plasma membrane
T2 sequence (P29274 whole entry): as above
Procedure: Ligand Binding Assay for Adenosine A2a Receptor
Ligand binding assay of adenosine A2a receptor was performed using plasma membrane of HEK293 cells containing human A2a adenosine receptor (PerkinElmer, RB-HA2a) and radioligand [^3H]CGS21680 (PerkinElmer, NET1021). Assay was set up in 96-well polypropylene plate in total volume of 200 μL by sequentially adding 20 μL 1:20 diluted membrane, 130 μL assay buffer (50 mM Tris.HCl, pH 7.4 10 mM MgCl2, 1 mM EDTA) containing [^3H] CGS21680, 50 μL diluted compound (4×) or vehicle control in assay buffer. Nonspecific binding was determined by […] NECA. Reaction was carried out at room temperature for 2 hours before filtering through 96-well GF/C filter plate pre-soaked in 50 mM Tris.HCl, pH 7.4 containing 0.3% polyethylenimine. Plates were then washed 5 times with cold 50 mM Tris.HCl, pH 7.4, dried and sealed at the bottom. Microscintillation fluid 30 μL was added to each well and the top sealed. Plates were counted on Packard Topcount for [^3H]. Data was analyzed in Microsoft Excel and GraphPad Prism programs. (Varani, K.; Gessi, S.; Dalpiaz, A.; Borea, P. A. British Journal of Pharmacology, 1996, 117, 1693)

[3] = target: T3, human adenosine A1 receptor (Homo sapiens, UniProt P30542); test: Adenosine A1 Receptor Functional Assay (A1GAL2); assay type: cell-based; settings: CHO-K1 cells overexpressing human A1, cAMP inducible beta-galactosidase reporter, 4 nM r-PIA/1 uM Forskolin challenge
T3 construct: expressed in transfected cells; host or cells: CHO-K1
T3 sequence (P30542 1-326): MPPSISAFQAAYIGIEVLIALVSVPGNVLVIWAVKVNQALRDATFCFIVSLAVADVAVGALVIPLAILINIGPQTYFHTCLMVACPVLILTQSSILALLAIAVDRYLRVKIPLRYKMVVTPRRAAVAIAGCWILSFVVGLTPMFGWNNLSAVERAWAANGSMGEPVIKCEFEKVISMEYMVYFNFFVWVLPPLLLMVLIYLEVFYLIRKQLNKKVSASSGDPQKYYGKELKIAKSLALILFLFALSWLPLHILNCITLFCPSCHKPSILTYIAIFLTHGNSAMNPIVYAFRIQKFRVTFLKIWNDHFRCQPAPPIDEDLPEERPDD
Procedure: Adenosine A1 Receptor Functional Assay (A1GAL2)
To initiate the functional assay, cryopreserved CHO-K1 cells overexpressing the human adenosine A1 receptor and containing a cAMP inducible beta-galactosidase reporter gene were thawed, centrifuged, DMSO containing media removed, and then seeded with fresh culture media into clear 384-well tissue culture treated plates (BD #353961) at a concentration of 10K cells/well. Prior to assay, these plates were cultured for two days at 37+ C., 5% CO2, 90% Rh. On the day of the functional assay, culture media was removed and replaced with 45 uL assay medium (Hams/F-12 Modified (Mediatech #10-080CV) supplemented w/0.1% BSA). Test compounds were diluted and 11 point curves created at a 1000× concentration in 100% DMSO. Immediately after addition of assay media to the cell plates, 50 nL of the appropriate test compound antagonist or agonist control curves were added to cell plates using a Cartesian Hummingbird. Compound curves were allowed to incubate at room temperature on cell plates for approximately 15 minutes before addition of a 4 nM r-PIA (Sigma P4532)/1 uM Forskolin (Sigma F3917) agonist challenge (5 uL volume). A control curve of r-PIA in 1 uM Forskolin, a DMSO/Media control, and a single dose of Forskolin were also included on each plate. After additions, cell plates were allowed to incubate at 37° C., 5% CO2, 90% Rh for 5.5-6 hours. After incubation, media was removed, and cell plates were washed 1× 50 uL with DPBS w/o Ca & Mg (Mediatech 21-031-CV). Into dry wells, 20 uL of 1× Reporter Lysis Buffer (Promega E3971 (diluted in dH2O from 5× stock)) was added to each well and plates frozen at −20° C. overnight. For β-galactosidase enzyme calorimetric assay, plates were thawed out at room temperature and 20 μL 2× assay buffer (Promega) was added to each well. Color was allowed to develop at 37° C., 5% CO2, 90% Rh for 1-1.5 h or until reasonable signal appeared. The calorimetric reaction was stopped with the addition of 60 μL/well 1M sodium carbonate. Plates were counted at 405 nm on a SpectraMax Microplate Reader (Molecular Devices). Data was analyzed in Microsoft Excel and IC/EC50 curves were fit using a standardized macro.

SMILES | pKi [1] | pKi [2] | pKi [3]
COc1ncccc1C(O)c1cc2c(N)nc(-c3cccc(C#N)c3)nc2s1 (stereo not drawn) [Example 9, 3-{4-Amino-6-[hydroxy-(2-methoxy-pyridin-3-yl)-methyl]-thieno[2,3-d]pyrimidin-2-yl}-benzonitrile] | 8.03 | 7.92 | 6.77
COc1ncccc1Cc1cc2c(N)nc(-c3cccc(C#N)c3)nc2s1 [Example 10, 3-[4-Amino-6-(2-methoxy-pyridin-3-ylmethyl)-thieno[2,3-d]pyrimidin-2-yl]-benzonitrile] | 7.84 | 7.47 | 6.99
N#Cc1cccc(-c2nc(N)c3cc(C(O)c4ccccn4)sc3n2)c1 (stereo not drawn) [Example 15, 3-[4-Amino-6-(hydroxy-pyridin-2-yl-methyl)-thieno[2,3-d]pyrimidin-2-yl]-benzonitrile] | 8.30 | 7.46 | 6.82
N#Cc1cccc(-c2nc(N)c3cc(C(O)c4ccncc4Cl)sc3n2)c1 (stereo not drawn) [Example 21, 3-{4-Amino-6-[(3-chloro-pyridin-4-yl)-hydroxy-methyl]-thieno[2,3-d]pyrimidin-2-yl}-benzonitrile] | 7.91 | 7.36 | 6.38
N#Cc1cccc(-c2nc(N)c3cc(C(O)c4cccnc4Cl)sc3n2)c1 (stereo not drawn) [Example 30, 3-{4-Amino-6-[(2-chloro-pyridin-3-yl)-hydroxy-methyl]-thieno[2,3-d]pyrimidin-2-yl}-benzonitrile] | 7.79 | 7.21 | 6.46
COc1cccnc1C(O)c1cc2c(N)nc(-c3cccc(C#N)c3)nc2s1 (stereo not drawn) [Example 33, 3-{4-Amino-6-[hydroxy-(3-methoxy-pyridin-2-yl)-methyl]-thieno[2,3-d]pyrimidin-2-yl}-benzonitrile] | 8.35 | 8.18 | 7.07
COc1cccnc1Cc1cc2c(N)nc(-c3cccc(C#N)c3)nc2s1 [Example 34, 3-[4-Amino-6-(3-methoxy-pyridin-2-ylmethyl)-thieno[2,3-d]pyrimidin-2-yl]-benzonitrile] | 8.91 | 7.70 | 7.58
N#Cc1cccc(-c2nc(N)c3cc(Cc4cccnc4Cl)sc3n2)c1 [Example 35, 3-[4-Amino-6-(2-chloro-pyridin-3-ylmethyl)-thieno[2,3-d]pyrimidin-2-yl]-benzonitrile] | 7.94 | 7.55 | 6.15
N#Cc1cccc(-c2nc(N)c3cc(Cc4ncccc4F)sc3n2)c1 [Example 38, 3-[4-Amino-6-(3-fluoro-pyridin-2-ylmethyl)-thieno[2,3-d]pyrimidin-2-yl]-benzonitrile] | 8.85 | 7.24 | 7.52
